Measured values taken from article PMC6576746, “Rational discovery of dual-indication multi-target PDE/Kinase inhibitor for precision anti-cancer therapy using structural systems pharmacology” (PLoS Computational Biology, 2019).

Assays:
Assay in all cases: biochemical
Design in all cases: DiscoverX KinomeScan competition binding assay across human kinases; per cent of control at 10 and 100 uM
CAMKK1 = CAMKK1 (Homo sapiens, UniProt Q8N5S9); conditions: competition binding, % of control
How it was run: (§1)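 Binding is expressed as %control, normalised between positive and negative control signals. The compound (levosimendan) was tested at 10 μM and 100 μM in the DiscoverX KinomeScan competition binding format against human kinases.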

ZAK = target: T1, ZAK (Homo sapiens, UniProt Q9NYL2); conditions: competition binding, % of control
T1 construct: gene MAP3K20
How it was run: as §1

TIE1 = TIE1 (Homo sapiens, UniProt P35590); conditions: competition binding, % of control; read-out: Percent Control (100 uM Levosimendan)
How it was run: as §1

PFTAIRE2 = target: T2, PFTAIRE2 (Homo sapiens, UniProt Q96Q40); conditions: competition binding, % of control; read-out: Percent Control (100 uM Levosimendan)
T2 construct: gene CDK15
How it was run: as §1

YANK1 = target: T3, YANK1 (Homo sapiens, UniProt Q8WU08); conditions: competition binding, % of control; read-out: Percent Control (100 uM Levosimendan)
T3 construct: gene STK32A
How it was run: as §1

ERK2 = target: T4, ERK2 (Homo sapiens, UniProt P28482); conditions: competition binding, % of control; read-out: Percent Control (100 uM Levosimendan)
T4 construct: gene MAPK1
How it was run: as §1

RIOK2 = RIOK2 (Homo sapiens, UniProt Q9BVS4); conditions: competition binding, % of control
How it was run: as §1

TXK = TXK (Homo sapiens, UniProt P42681); conditions: competition binding, % of control; read-out: Percent Control (100 uM Levosimendan)
How it was run: as §1

MLK3 = target: T5, MLK3 (Homo sapiens, UniProt Q16584); conditions: competition binding, % of control; read-out: Percent Control (100 uM Levosimendan)
T5 construct: gene MAP3K11
How it was run: as §1

CSNK1E = CSNK1E (Homo sapiens, UniProt P49674); conditions: competition binding, % of control; read-out: Percent Control (100 uM Levosimendan)
How it was run: as §1

TTK = TTK (Homo sapiens, UniProt P33981); conditions: competition binding, % of control; read-out: Percent Control (100 uM Levosimendan)
How it was run: as §1

JNK1 = target: T6, JNK1 (Homo sapiens, UniProt P45983); conditions: competition binding, % of control; read-out: Percent Control (100 uM Levosimendan)
T6 construct: gene MAPK8
How it was run: as §1

ERBB2 = ERBB2 (Homo sapiens, UniProt P04626); conditions: competition binding, % of control; read-out: Percent Control (100 uM Levosimendan)
How it was run: as §1

EGFR(L747-T751del,Sins) = EGFR(L747-T751del,Sins) (Homo sapiens, UniProt P00533, DEL747-750/T751S); conditions: competition binding, % of control; read-out: Percent Control (100 uM Levosimendan)
How it was run: as §1

WNK2 = WNK2 (Homo sapiens, UniProt Q9Y3S1); conditions: competition binding, % of control; read-out: Percent Control (100 uM Levosimendan)
How it was run: as §1

CSNK1A1 = CSNK1A1 (Homo sapiens, UniProt P48729); conditions: competition binding, % of control
How it was run: as §1

SLK = SLK (Homo sapiens, UniProt Q9H2G2); conditions: competition binding, % of control; read-out: Percent Control (100 uM Levosimendan)
How it was run: as §1

WNK3 = WNK3 (Homo sapiens, UniProt Q9BYP7); conditions: competition binding, % of control; read-out: Percent Control (100 uM Levosimendan)
How it was run: as §1

DMPK = DMPK (Homo sapiens, UniProt Q09013); conditions: competition binding, % of control
How it was run: as §1

[1] = read-out: Percent Control (10 uM Levosimendan)
[2] = read-out: Percent Control (100 uM Levosimendan)

T1 sequence (Q9NYL2 whole entry): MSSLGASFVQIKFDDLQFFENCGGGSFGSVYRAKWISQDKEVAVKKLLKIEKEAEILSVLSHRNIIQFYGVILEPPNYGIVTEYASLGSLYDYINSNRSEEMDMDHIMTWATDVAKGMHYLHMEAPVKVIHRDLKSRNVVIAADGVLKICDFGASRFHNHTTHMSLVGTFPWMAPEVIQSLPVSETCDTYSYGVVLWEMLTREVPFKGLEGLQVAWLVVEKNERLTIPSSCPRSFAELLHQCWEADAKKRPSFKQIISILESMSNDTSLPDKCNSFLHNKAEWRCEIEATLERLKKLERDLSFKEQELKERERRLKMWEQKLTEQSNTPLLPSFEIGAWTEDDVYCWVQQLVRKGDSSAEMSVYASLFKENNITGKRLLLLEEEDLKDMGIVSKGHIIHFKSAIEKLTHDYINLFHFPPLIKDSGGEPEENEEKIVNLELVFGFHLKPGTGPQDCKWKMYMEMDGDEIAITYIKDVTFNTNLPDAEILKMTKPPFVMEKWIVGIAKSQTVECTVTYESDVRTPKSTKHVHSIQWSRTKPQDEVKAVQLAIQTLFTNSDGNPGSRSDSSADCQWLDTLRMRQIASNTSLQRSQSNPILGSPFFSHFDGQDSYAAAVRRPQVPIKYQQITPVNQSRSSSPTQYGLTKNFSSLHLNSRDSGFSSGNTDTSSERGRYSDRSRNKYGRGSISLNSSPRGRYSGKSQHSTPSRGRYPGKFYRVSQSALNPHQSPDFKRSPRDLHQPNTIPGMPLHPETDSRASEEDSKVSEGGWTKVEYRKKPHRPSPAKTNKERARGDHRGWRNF
RIOK2, sequence (Q9BVS4 whole entry): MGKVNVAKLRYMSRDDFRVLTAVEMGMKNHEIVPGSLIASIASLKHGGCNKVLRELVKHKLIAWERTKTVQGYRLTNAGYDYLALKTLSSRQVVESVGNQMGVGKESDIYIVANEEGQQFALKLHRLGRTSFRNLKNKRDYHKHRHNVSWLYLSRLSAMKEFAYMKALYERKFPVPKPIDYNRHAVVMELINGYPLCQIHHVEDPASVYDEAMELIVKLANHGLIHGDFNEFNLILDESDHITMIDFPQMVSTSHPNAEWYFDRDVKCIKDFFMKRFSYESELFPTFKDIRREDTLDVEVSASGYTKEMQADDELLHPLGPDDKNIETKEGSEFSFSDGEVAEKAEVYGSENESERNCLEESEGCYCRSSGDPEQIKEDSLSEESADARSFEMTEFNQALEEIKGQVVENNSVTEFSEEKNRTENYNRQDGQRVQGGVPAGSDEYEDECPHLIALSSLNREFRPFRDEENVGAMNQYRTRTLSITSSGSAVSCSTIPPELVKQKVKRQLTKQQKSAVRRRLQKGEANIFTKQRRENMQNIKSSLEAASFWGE
CSNK1A1, sequence (P48729 whole entry): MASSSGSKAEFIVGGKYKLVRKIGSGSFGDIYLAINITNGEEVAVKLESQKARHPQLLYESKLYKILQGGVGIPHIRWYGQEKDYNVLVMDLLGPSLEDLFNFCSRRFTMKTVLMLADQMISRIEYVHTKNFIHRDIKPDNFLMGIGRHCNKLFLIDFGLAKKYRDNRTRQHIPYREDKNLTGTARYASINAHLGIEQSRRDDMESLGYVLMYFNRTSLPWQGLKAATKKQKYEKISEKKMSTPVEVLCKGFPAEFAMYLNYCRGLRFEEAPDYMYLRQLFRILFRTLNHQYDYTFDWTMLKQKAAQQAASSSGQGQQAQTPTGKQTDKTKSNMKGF
CAMKK1, sequence (Q8N5S9 whole entry): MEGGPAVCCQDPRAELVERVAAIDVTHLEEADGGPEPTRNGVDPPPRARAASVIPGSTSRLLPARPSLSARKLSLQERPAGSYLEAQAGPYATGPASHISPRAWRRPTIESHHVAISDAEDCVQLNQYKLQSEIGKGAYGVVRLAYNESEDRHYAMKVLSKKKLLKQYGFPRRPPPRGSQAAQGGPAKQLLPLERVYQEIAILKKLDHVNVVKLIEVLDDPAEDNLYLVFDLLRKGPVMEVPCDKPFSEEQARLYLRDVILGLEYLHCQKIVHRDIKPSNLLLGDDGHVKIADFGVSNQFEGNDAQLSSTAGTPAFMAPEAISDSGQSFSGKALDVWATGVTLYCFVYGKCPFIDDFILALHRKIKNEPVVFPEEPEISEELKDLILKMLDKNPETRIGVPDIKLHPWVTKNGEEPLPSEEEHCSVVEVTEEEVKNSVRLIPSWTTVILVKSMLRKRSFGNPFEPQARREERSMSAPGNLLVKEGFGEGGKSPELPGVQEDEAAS
DMPK, sequence (Q09013 whole entry): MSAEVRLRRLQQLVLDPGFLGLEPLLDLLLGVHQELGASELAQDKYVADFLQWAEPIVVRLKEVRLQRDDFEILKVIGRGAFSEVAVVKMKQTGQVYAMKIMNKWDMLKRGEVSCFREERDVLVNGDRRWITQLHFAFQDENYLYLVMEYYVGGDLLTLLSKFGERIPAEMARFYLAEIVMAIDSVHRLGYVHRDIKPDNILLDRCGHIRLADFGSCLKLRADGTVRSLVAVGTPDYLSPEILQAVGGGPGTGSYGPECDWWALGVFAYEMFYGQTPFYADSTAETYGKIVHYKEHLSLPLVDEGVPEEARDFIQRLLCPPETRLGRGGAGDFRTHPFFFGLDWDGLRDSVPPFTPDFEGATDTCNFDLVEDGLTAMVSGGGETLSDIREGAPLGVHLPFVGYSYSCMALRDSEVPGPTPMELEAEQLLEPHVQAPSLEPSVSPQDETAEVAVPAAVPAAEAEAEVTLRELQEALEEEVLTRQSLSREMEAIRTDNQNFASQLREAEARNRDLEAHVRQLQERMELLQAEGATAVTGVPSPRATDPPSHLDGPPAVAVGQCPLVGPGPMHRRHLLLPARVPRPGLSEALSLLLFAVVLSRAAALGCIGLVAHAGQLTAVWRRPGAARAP
T6 sequence (P45983 whole entry): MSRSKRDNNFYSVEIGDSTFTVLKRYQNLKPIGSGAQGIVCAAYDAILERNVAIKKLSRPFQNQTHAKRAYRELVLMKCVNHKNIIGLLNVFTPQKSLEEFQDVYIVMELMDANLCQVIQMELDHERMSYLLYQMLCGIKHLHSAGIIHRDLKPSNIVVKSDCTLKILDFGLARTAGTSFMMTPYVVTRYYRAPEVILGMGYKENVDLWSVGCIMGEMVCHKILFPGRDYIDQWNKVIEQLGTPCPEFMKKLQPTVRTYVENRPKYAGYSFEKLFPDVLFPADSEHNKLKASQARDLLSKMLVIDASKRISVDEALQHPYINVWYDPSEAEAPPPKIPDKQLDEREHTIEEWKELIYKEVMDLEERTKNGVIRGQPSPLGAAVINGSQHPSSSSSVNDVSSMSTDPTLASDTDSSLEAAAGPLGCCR
TIE1, sequence (P35590 whole entry): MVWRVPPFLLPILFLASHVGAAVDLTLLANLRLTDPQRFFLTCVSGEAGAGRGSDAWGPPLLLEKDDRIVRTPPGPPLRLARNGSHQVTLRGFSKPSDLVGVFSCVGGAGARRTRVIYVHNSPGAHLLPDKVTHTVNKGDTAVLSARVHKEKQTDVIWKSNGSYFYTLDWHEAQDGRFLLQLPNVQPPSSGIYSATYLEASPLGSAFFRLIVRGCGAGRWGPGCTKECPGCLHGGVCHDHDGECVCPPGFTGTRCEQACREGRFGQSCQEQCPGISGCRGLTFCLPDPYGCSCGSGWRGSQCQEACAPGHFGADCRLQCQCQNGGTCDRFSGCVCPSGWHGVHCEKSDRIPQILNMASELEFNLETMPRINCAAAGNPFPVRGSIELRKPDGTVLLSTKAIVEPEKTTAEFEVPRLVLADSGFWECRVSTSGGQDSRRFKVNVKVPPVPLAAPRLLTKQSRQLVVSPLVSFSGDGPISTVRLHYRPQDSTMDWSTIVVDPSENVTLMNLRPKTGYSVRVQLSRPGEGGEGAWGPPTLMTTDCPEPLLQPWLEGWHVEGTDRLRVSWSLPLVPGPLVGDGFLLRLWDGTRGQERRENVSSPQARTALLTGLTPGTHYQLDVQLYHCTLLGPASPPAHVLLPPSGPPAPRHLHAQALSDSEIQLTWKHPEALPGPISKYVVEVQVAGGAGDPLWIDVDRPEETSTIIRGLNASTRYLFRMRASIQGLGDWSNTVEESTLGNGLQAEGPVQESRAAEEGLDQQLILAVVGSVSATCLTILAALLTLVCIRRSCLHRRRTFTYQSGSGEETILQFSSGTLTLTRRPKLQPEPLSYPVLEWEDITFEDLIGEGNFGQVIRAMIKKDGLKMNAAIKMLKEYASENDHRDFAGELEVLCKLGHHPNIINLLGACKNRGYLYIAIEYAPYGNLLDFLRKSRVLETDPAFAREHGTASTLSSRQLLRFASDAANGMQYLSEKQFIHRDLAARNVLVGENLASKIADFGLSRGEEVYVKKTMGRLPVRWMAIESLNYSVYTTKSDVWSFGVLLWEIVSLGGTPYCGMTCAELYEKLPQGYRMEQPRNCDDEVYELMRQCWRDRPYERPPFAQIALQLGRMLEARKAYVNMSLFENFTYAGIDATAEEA
T3 sequence (Q8WU08 whole entry): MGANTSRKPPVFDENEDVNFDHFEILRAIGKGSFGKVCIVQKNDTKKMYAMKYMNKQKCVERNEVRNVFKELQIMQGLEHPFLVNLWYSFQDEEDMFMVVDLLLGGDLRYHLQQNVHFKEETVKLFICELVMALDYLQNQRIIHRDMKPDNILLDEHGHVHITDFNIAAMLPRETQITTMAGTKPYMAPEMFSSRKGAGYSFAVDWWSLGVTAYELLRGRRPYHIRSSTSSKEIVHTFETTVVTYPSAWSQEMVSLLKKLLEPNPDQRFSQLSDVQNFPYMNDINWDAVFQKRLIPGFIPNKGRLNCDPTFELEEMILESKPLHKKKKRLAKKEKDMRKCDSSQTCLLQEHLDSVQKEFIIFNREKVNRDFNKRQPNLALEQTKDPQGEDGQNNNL

- remaining binding at 10 µM (CAMKK1; [1]): 82%
- remaining binding at 100 µM (CAMKK1; [2]): 51%
- remaining binding at 10 µM (ZAK; [1]): 100%
- remaining binding at 100 µM (ZAK; [2]): 52%
- remaining binding at 100 µM (TIE1): 100%
- remaining binding at 100 µM (PFTAIRE2): 85%
- remaining binding at 100 µM (YANK1): 94%
- remaining binding at 100 µM (ERK2): 100%
- remaining binding at 10 µM (RIOK2; [1]): 67%
- remaining binding at 100 µM (RIOK2; [2]): 27%
- remaining binding at 100 µM (TXK): 60%
- remaining binding at 100 µM (MLK3): 73%
- remaining binding at 100 µM (CSNK1E): 63%
- remaining binding at 100 µM (TTK): 86%
- remaining binding at 100 µM (JNK1): 71%
- remaining binding at 100 µM (ERBB2): 100%
- remaining binding at 100 µM (EGFR(L747-T751del,Sins)): 59%
- remaining binding at 100 µM (WNK2): 98%
- remaining binding at 10 µM (CSNK1A1; [1]): 98%
- remaining binding at 100 µM (CSNK1A1; [2]): 42%
- remaining binding at 100 µM (SLK): 85%
- remaining binding at 100 µM (WNK3): 81%
- remaining binding at 10 µM (DMPK; [1]): 100%
- remaining binding at 100 µM (DMPK; [2]): 29%
Structure (SMILES): C[C@@H]1CC(=O)NN=C1c1ccc(NN=C(C#N)C#N)cc1 [levosimendan]
